Assay results taken from article PMC11555678, “Improved Broad Spectrum Antifungal Drug Synergies with Cryptomycin, a Cdc50-Inspired Antifungal Peptide” (ACS Infectious Diseases, 2024).
Like-named read-outs stand apart in the source and are kept apart here.

What was measured:
Cg FKS1 S629P = assay: Drug synergy (MIC in peptide-supplemented media); type: cell-based, Candida glabrata; conditions: in the presence of 2 μg/mL KKOO-NH2
Experimental: (§1) All microdilution assays with fungi were carried out in accordance with CLSI protocols from M27 for yeasts and M38 for filamentous fungi, respectively, unless otherwise specified.[64],[65] Briefly, 96-well plates were charged with RPMI1640 media, with operating volume in the first column, 200 μL, and half operating volume, 100 μL, in the remaining wells. Drug stock solution in DMSO was aliquoted into the first well in each row. Half of the volume in the dosed well was serially diluted 2-fold until column 11. Column 11 was used as the negative growth control, and column 12 was used as the positive growth control. ON yeast cultures in YPD were washed twice in DD-H2O, resuspended in PBS, and adjusted to 5000 cfu/mL in RPMI. The 96-well plate was inoculated with 100 μL aliquots of cell suspension per well. Plates were incubated at 37 °C for 2 days.
(§2) To assess drug synergy, the initial media charged to the plate contained the peptide at twice the final operating concentration; the remaining processing steps were identical to the MIC experiment. Upon addition of 100 μL of inoculant, the final operating concentration was achieved. Control MIC plates were prepared alongside drug synergy plates to account for the day-to-day variability in any individual MIC. FIC index is computed using eq 1. All MIC assays and drug synergy assays were completed with two technical replicates per 96-well plate and a minimum of two biological replicates per drug combination. If a difference in MIC between the two technical replicates on the plate were observed, only the higher concentration was reported as the MIC to reduce the possibility of type 1 error (false positive) [drawing 1] 1

Cg FKS2 S663P = assay: Drug synergy (MIC in peptide-supplemented media); type: cell-based, Candida glabrata; conditions: for MIC of antifungal in combination with KKOO / MIC of antifungal in combination with KKOO-NH2: RPMI1640, 37 °C, 48 h
Experimental: as §1, §2

C. albicans SC5413 = type: cell-based, Candida albicans; conditions: RPMI1640, 37 °C, 48 h; for MIC of antifungal in combination with KKOO: azole MICs unclear (intermediate phenotype); for MIC of antifungal in combination with KKOO-NH2: azole MICs could not be determined (intermediate phenotype)
Experimental: as §1, §2

C. auris B11245 = type: cell-based, Candida auris; conditions: for MIC of antifungal in combination with KKOO / MIC of antifungal in combination with KKOO-NH2: RPMI1640, 37 °C, 48 h, CAS: paradoxical growth; for MIC of antifungal in combination with KKOO: MIC = <20% growth; for MIC of antifungal in combination with KKOO-NH2: MIC = well with <20% growth
Experimental: as §1, §2

A. fumigatus AF293 = assay: Drug synergy (MIC in peptide-supplemented media); type: cell-based, Aspergillus fumigatus; conditions: RPMI1640, 37 °C, 48 h, CAS: paradoxical growth; for MIC of antifungal in combination with KKOO: MIC = <20% growth; for MIC of antifungal in combination with KKOO-NH2: MIC = well with <20% growth
Experimental: as §1, §2

CC[C@H](C)C[C@H](C)CCCCCCCCC(=O)N[C@H]1C[C@@H](O)[C@@H](NCCN)NC(=O)[C@@H]2[C@@H](O)CCN2C(=O)[C@H]([C@H](O)CCN)NC(=O)[C@H]([C@H](O)[C@@H](O)c2ccc(O)cc2)NC(=O)[C@@H]2C[C@@H](O)CN2C(=O)[C@H]([C@@H](C)O)NC1=O [CAS, caspofungin]
reduction of MIC of antifungal (Cg FKS1 S629P): 16 fold | MIC of antifungal in combination with KKOO (Cg FKS2 S663P; +0 μg/mL KKOO (control)): 4 µg/mL | MIC of antifungal in combination with KKOO-NH2 (Cg FKS2 S663P; +0 μg/mL KKOO-NH2 (control)): 4 µg/mL | MIC of antifungal in combination with KKOO-NH2 (Cg FKS2 S663P; +1 μg/mL KKOO-NH2): 2 µg/mL | MIC of antifungal in combination with KKOO (Cg FKS2 S663P; +1 μg/mL KKOO): 2 µg/mL | MIC of antifungal in combination with KKOO-NH2 (Cg FKS2 S663P; +2 μg/mL KKOO-NH2): 1 µg/mL | MIC of antifungal in combination with KKOO (Cg FKS2 S663P; +2 μg/mL KKOO): 2 µg/mL | MIC of antifungal in combination with KKOO-NH2 (Cg FKS2 S663P; +4 μg/mL KKOO-NH2): 1 µg/mL | MIC of antifungal in combination with KKOO (Cg FKS2 S663P; +4 μg/mL KKOO): 1 µg/mL | reduction of MIC of antifungal (Cg FKS2 S663P; in the presence of 2 μg/mL KKOO-NH2): 4 fold | MIC of antifungal in combination with KKOO (C. albicans SC5413; +0 μg/mL KKOO (control)): 0.25 µg/mL | MIC of antifungal in combination with KKOO-NH2 (C. albicans SC5413; +0 μg/mL KKOO-NH2 (control)): 0.25 µg/mL | MIC of antifungal in combination with KKOO-NH2 (C. albicans SC5413; +1 μg/mL KKOO-NH2): 0.5 µg/mL | MIC of antifungal in combination with KKOO (C. albicans SC5413; +1 μg/mL KKOO): 0.5 µg/mL | MIC of antifungal in combination with KKOO-NH2 (C. albicans SC5413; +2 μg/mL KKOO-NH2): 0.062 µg/mL | MIC of antifungal in combination with KKOO (C. albicans SC5413; +2 μg/mL KKOO): 0.125 µg/mL | MIC of antifungal in combination with KKOO-NH2 (C. albicans SC5413; +4 μg/mL KKOO-NH2): 0.008 µg/mL | MIC of antifungal in combination with KKOO (C. albicans SC5413; +4 μg/mL KKOO): 0.556 µg/mL | MIC of antifungal in combination with KKOO (C. albicans SC5413; +8 μg/mL KKOO): 0.008 µg/mL | MIC of antifungal in combination with KKOO (C. auris B11245; +0 μg/mL KKOO (control)): 1 µg/mL | MIC of antifungal in combination with KKOO-NH2 (C. auris B11245; +0 μg/mL KKOO-NH2 (control)): 1 µg/mL | MIC of antifungal in combination with KKOO-NH2 (C. auris B11245; +1 μg/mL KKOO-NH2): 0.5 µg/mL | MIC of antifungal in combination with KKOO (C. auris B11245; +1 μg/mL KKOO): 1 µg/mL | MIC of antifungal in combination with KKOO-NH2 (C. auris B11245; +2 μg/mL KKOO-NH2): 0.125 µg/mL | MIC of antifungal in combination with KKOO (C. auris B11245; +2 μg/mL KKOO): 0.25 µg/mL | MIC of antifungal in combination with KKOO-NH2 (C. auris B11245; +4 μg/mL KKOO-NH2): 0.031 µg/mL | MIC of antifungal in combination with KKOO (C. auris B11245; +4 μg/mL KKOO): 0.031 µg/mL | reduction of MIC of antifungal (C. auris B11245; in the presence of 2 μg/mL KKOO-NH2, 48 h): 8 fold | MIC of antifungal in combination with KKOO (A. fumigatus AF293; +0 μg/mL KKOO (control)): 0.125 µg/mL | MIC of antifungal in combination with KKOO-NH2 (A. fumigatus AF293; +0 μg/mL KKOO-NH2 (control)): 0.125 µg/mL | MIC of antifungal in combination with KKOO-NH2 (A. fumigatus AF293; +1 μg/mL KKOO-NH2): 0.031 µg/mL | MIC of antifungal in combination with KKOO (A. fumigatus AF293; +1 μg/mL KKOO): 0.062 µg/mL | MIC of antifungal in combination with KKOO-NH2 (A. fumigatus AF293; +2 μg/mL KKOO-NH2): 0.031 µg/mL | MIC of antifungal in combination with KKOO (A. fumigatus AF293; +2 μg/mL KKOO): 0.031 µg/mL | MIC of antifungal in combination with KKOO-NH2 (A. fumigatus AF293; +4 μg/mL KKOO-NH2): 0.031 µg/mL | MIC of antifungal in combination with KKOO (A. fumigatus AF293; +4 μg/mL KKOO): 0.031 µg/mL | MIC of antifungal in combination with KKOO-NH2 (A. fumigatus AF293; +8 μg/mL KKOO-NH2): 0.031 µg/mL
